Values quoted from earlier work in EP3027215B1, “POWDER FORMULATION OF VALGANCICLOVIR” (Ali Raif Ilaç Sanayi ve Ticaret Anonim Sirketi, priority 2013, dated 2015).

Tests used:
[1] = solid form, stored under room temperature conditions
[2] = at pH 7.0

In the case of `CC(C)[C@H](N)C(=O)OCC(CO)OCn1cnc2c(=O)[nH]c(N)nc21.Cl` (stereo partly drawn) [Valganciclovir hydrochloride, L-Valine, 2-[(2-amino-1,6-dihydro-6-oxo-9H-purin-9-yl)methoxy]-3-hydroxypropyl ester, monohydrochloride], the “physical, chemical, and light stability” value [1] is given as “acceptable” and the n-octanol-water partition coefficient [2] is given as 0.0095.
